Assay results as given in patent US9695155B2, “Herbicidal substituted pyrimidinyloxy benzene compounds” (E. I. DU PONT DE NEMOURS AND COMPANY, priority 2013, dated 2017).

Legend:
barnyardgrass [1] = experiment: Test A preemergence; type: in vivo, Echinochloa crus-galli
Description: (§1) Seeds of plant species selected from barnyardgrass (Echinochloa crus-galli), kochia (Kochia scoparia), ragweed (common ragweed, Ambrosia elatior), Italian ryegrass (Lolium multiflorum), large (Lg) crabgrass (Digitaria sanguinalis), giant foxtail (Setaria faberii), morningglory (Ipomoea spp.), pigweed (Amaranthus retroflexus), velvetleaf (Abutilon theophrasti), wheat (Triticum aestivum), and corn (Zea mays) were planted into a blend of loam soil and sand and treated preemergence with a directed soil spray using test chemicals formulated in a non-phytotoxic solvent mixture which included a surfactant.
(§2) At the same time, plants selected from these crop and weed species and also blackgrass (Alopecurus myosuroides), and galium (catchweed bedstraw, Galium aparine) were planted in pots containing the same blend of loam soil and sand and treated with postemergence applications of test chemicals formulated in the same manner. Plants ranged in height from 2 to 10 cm and were in the one- to two-leaf stage for the postemergence treatment. Treated plants and untreated controls were maintained in a greenhouse for approximately 10 days, after which time all treated plants were compared to untreated controls and visually evaluated for injury. Plant response ratings, summarized in Table A, are based on a 0 to 100 scale where 0 is no effect and 100 is complete control. A dash (-) response means no test result.

large (Lg) crabgrass [2] = experiment: Test A preemergence; type: in vivo, Digitaria sanguinalis
Description: as §1, §2

giant foxtail [3] = experiment: Test A preemergence; type: in vivo, Setaria faberii
Description: as §1, §2

morningglory [4] = experiment: Test A preemergence; type: in vivo, Ipomoea spp.
Description: as §1, §2

pigweed [5] = experiment: Test A preemergence; type: in vivo, Amaranthus retroflexus
Description: as §1, §2

velvetleaf [6] = experiment: Test A preemergence; type: in vivo, Abutilon theophrasti
Description: as §1, §2

wheat [7] = experiment: Test A preemergence; type: in vivo, Triticum aestivum
Description: as §1, §2

corn [8] = experiment: Test A preemergence; type: in vivo, Zea mays
Description: as §1, §2

barnyardgrass [9] = experiment: Test A postemergence; type: in vivo, Echinochloa crus-galli
Description: as §1, §2

large (Lg) crabgrass [10] = experiment: Test A postemergence; type: in vivo, Digitaria sanguinalis
Description: as §1, §2

giant foxtail [11] = experiment: Test A postemergence; type: in vivo, Setaria faberii
Description: as §1, §2

morningglory [12] = experiment: Test A postemergence; type: in vivo, Ipomoea spp.
Description: as §1, §2

pigweed [13] = experiment: Test A postemergence; type: in vivo, Amaranthus retroflexus
Description: as §1, §2

velvetleaf [14] = experiment: Test A postemergence; type: in vivo, Abutilon theophrasti
Description: as §1, §2

wheat [15] = experiment: Test A postemergence; type: in vivo, Triticum aestivum
Description: as §1, §2

corn [16] = experiment: Test A postemergence; type: in vivo, Zea mays
Description: as §1, §2

[17] = 1000 g ai/ha, 0 to 100 scale, 0 no effect, 100 complete control
[18] = 1000 g ai/ha, 0 to 100 scale, 0 no effect, 100 complete control, approx. 10 days
[19] = 500 g ai/ha, 0 to 100 scale where 0 is no effect and 100 is complete control

Compound | Foxtail, Giant plant response rating (giant foxtail [3]; [18]) | Morningglory plant response rating (morningglory [4]; [18]) | Pigweed plant response rating (pigweed [5]; [18]) | Velvetleaf plant response rating (velvetleaf [6]; [18]) | Wheat plant response rating (wheat [7]; [18]) | Plant response rating, Barnyardgrass (barnyardgrass [9]; [17]) | Plant response rating, Crabgrass, Large (large (Lg) crabgrass [10]; [17]) | Plant response rating, Foxtail, Giant (giant foxtail [11]; [17]) | Plant response rating, Morningglory (morningglory [12]; [17]) | Plant response rating, Pigweed (pigweed [13]; [17]) | Plant response rating, Velvetleaf (velvetleaf [14]; [17]) | Plant response rating, Wheat (wheat [15]; [17]) | Plant response rating, Corn (corn [16]; [17]) | Barnyardgrass plant response rating (barnyardgrass [1]; [18]) | Crabgrass, Large plant response rating (large (Lg) crabgrass [2]; [18]) | Corn plant response rating (corn [8]; [18]) | further results
Clc1cnc(Oc2ccccc2-n2cccn2)nc1 [Compound 12, 5-chloro-2-[2-(1H-pyrazol-1-yl)phenoxy]pyrimidine] | – | – | – | – | – | – | – | – | – | – | – | – | – | – | – | – | pest or weed control at 1000 g/ha (barnyardgrass [1]; Echinochloa crus-galli, pre-emergence, 240 h, 1000 g ai/ha, 0 to 100 scale, 0 no effect, 100 complete control, read-out: Plant response rating, Barnyardgrass): 100%; pest or weed control at 1000 g/ha (large (Lg) crabgrass [2]; Digitaria sanguinalis, pre-emergence, 240 h, 1000 g ai/ha, 0 to 100 scale, 0 no effect, 100 complete control, read-out: Plant response rating, Crabgrass, Large): 100%; pest or weed control at 1000 g/ha (giant foxtail [3]; Setaria faberi, pre-emergence, 240 h, 1000 g ai/ha, 0 to 100 scale, 0 no effect, 100 complete control, approx. 10 days, read-out: Foxtail, Giant plant response rating): 100%; pest or weed control at 1000 g/ha (morningglory [4]; Ipomoea, pre-emergence, 240 h, 1000 g ai/ha, 0 to 100 scale, 0 no effect, 100 complete control, approx. 10 days, read-out: Morningglory plant response rating): 0%; pest or weed control at 1000 g/ha (pigweed [5]; Amaranthus retroflexus, pre-emergence, 240 h, 1000 g ai/ha, 0 to 100 scale, 0 no effect, 100 complete control, approx. 10 days, read-out: Pigweed plant response rating): 100%; pest or weed control at 1000 g/ha (velvetleaf [6]; Abutilon theophrasti, pre-emergence, 240 h, 1000 g ai/ha, 0 to 100 scale, 0 no effect, 100 complete control, approx. 10 days, read-out: Velvetleaf plant response rating): 100%; plant injury at 1000 g/ha (wheat [7]; Triticum aestivum, pre-emergence, 240 h, 1000 g ai/ha, 0 to 100 scale, 0 no effect, 100 complete control, approx. 10 days, read-out: Wheat plant response rating): 20%; Corn plant response rating (crop injury, 0 = no effect, 100 = complete kill) at 1000 g/ha (corn [8]; Zea mays, pre-emergence, 240 h, 1000 g ai/ha, 0 to 100 scale, 0 no effect, 100 complete control): 0%; pest or weed control at 1000 g/ha (barnyardgrass [9]; Echinochloa crus-galli, post-emergence, 240 h, 1000 g ai/ha, 0 to 100 scale, 0 no effect, 100 complete control, read-out: Plant response rating Barnyardgrass): 90%; pest or weed control at 1000 g/ha (large (Lg) crabgrass [10]; Digitaria sanguinalis, post-emergence, 240 h, 1000 g ai/ha, 0 to 100 scale, 0 no effect, 100 complete control, read-out: Plant response rating Crabgrass, Large): 80%; pest or weed control at 1000 g/ha (giant foxtail [11]; Setaria faberi, post-emergence, 240 h, 1000 g ai/ha, 0 to 100 scale, 0 no effect, 100 complete control, read-out: Plant response rating Foxtail, Giant): 80%; pest or weed control at 1000 g/ha (morningglory [12]; Ipomoea, post-emergence, 240 h, 1000 g ai/ha, 0 to 100 scale, 0 no effect, 100 complete control, read-out: Plant response rating Morningglory): 90%; pest or weed control at 1000 g/ha (pigweed [13]; Amaranthus retroflexus, post-emergence, 240 h, 1000 g ai/ha, 0 to 100 scale, 0 no effect, 100 complete control, read-out: Plant response rating Pigweed): 100%; pest or weed control at 1000 g/ha (velvetleaf [14]; Abutilon theophrasti, post-emergence, 240 h, 1000 g ai/ha, 0 to 100 scale, 0 no effect, 100 complete control, read-out: Plant response rating Velvetleaf): 100%; plant injury at 1000 g/ha (wheat [15]; Triticum aestivum, post-emergence, 240 h, 1000 g ai/ha, 0 to 100 scale, 0 no effect, 100 complete control, read-out: Plant response rating Wheat): 20%; plant injury at 1000 g/ha (corn [16]; Zea mays, post-emergence, 240 h, 1000 g ai/ha, 0 to 100 scale, 0 no effect, 100 complete control, read-out: Plant response rating Corn): 30%
CC(=O)Oc1cccc(Oc2ncc(Cl)cn2)c1-n1cc(Br)cn1 [Compound 67] | 10 | 0 | 100 | 10 | 0 | 20 | 10 | 10 | 10 | 100 | 70 | 0 | 10 | – | – | – | Plant response rating, Barnyardgrass (barnyardgrass [1]; [17]): 0; Plant response rating, Crabgrass, Large (large (Lg) crabgrass [2]; [17]): 20; Plant response rating, Corn (corn [8]; [17]): 0
N#CCOc1cccc(Oc2ncc(Cl)cn2)c1-n1cc(Br)cn1 [Compound 70] | 60 | 10 | 90 | 70 | 0 | 80 | 60 | 60 | 20 | 70 | 70 | 0 | 10 | – | – | – | Plant response rating, Barnyardgrass (barnyardgrass [1]; [17]): 50; Plant response rating, Crabgrass, Large (large (Lg) crabgrass [2]; [17]): 90; Plant response rating, Corn (corn [8]; [17]): 0
Fc1cccc(Oc2ncc(Cl)cn2)c1-n1cccn1 [Compound 176] | – | – | – | – | – | – | – | – | – | – | – | – | – | – | – | – | Barnyardgrass plant response rating (barnyardgrass [1]; [19]): 60; Crabgrass, Large plant response rating (large (Lg) crabgrass [2]; [19]): 100; Foxtail, Giant plant response rating (giant foxtail [3]; [19]): 100; Morningglory plant response rating (morningglory [4]; [19]): 0; Pigweed plant response rating (pigweed [5]; [19]): 100; Velvetleaf plant response rating (velvetleaf [6]; [19]): 90; Wheat plant response rating (wheat [7]; [19]): 0; Corn plant response rating (corn [8]; [19]): 0; Plant response rating, Barnyardgrass (barnyardgrass [9]; [19]): 40; Plant response rating, Crabgrass, Large (large (Lg) crabgrass [10]; [19]): 40; Plant response rating, Foxtail, Giant (giant foxtail [11]; [19]): 50; Plant response rating, Morningglory (morningglory [12]; [19]): 80; Plant response rating, Pigweed (pigweed [13]; [19]): 100; Plant response rating, Velvetleaf (velvetleaf [14]; [19]): 90; Plant response rating, Wheat (wheat [15]; [19]): 10; Plant response rating, Corn (corn [16]; [19]): 20
COc1ccc(I)c(-n2cc(Br)cn2)c1Oc1ncc(Cl)cn1 [Compound 207] | 50 | 0 | 0 | 30 | 0 | 10 | 40 | 60 | 30 | 70 | 30 | 0 | 0 | 0 | 50 | 0 | –
Oc1cccc(Oc2ncc(Cl)cn2)c1-n1cc(Cl)cn1 [Compound 229] | 0 | 0 | 100 | 0 | 0 | 0 | 0 | 0 | 0 | 60 | 0 | 0 | 0 | 0 | 10 | 0 | –
Fc1cc(F)cc(-c2cn(-c3c(Br)cccc3Oc3ncc(Cl)cn3)nn2)c1 [Compound 303] | 50 | 0 | 80 | 0 | 0 | 20 | 20 | 20 | 30 | 90 | 70 | 0 | 10 | 0 | 60 | 0 | –
